As usually defined, the IC50 is the concentration needed to halve the response being measured. Read a low IC50 as higher potency.

Test [1] deals with PRMT5-MEP50 enzyme complex (Homo sapiens (Human), UniProt O14744). Kind of test: PRMT5 enzyme activity in vitro assay (methylation of histone H4R3, ELISA absorbance at 450 nm). Conditions: SAM, histone H4 peptide, room temperature 2 hours, 8 points from 10 μM to 0.128 nM. The class given is biochemical. In short, it runs like this:
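Human PRMT5-MEP50 was prepared at 5 μg/mL with SAM at 2 μM and reacted 2 h at room temperature on plate-coated histone H4 (1-20) peptide. An 8-point 1:5 compound series ran from 10 μM to 0.128 nM. H4R3 methylation was detected by antibody/HRP ELISA at 450 nm to give IC50.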
Background: An ELISA detects its analyte on a solid surface through an enzyme-linked reagent.

In test [2] the test system is SDMA levels in the tumor (U87MG tumor cells implanted subcutaneously). Kind of test: Test for in vivo target inhibitory activity (SDMA levels in U87MG tumor). Conditions: U87MG tumor in nude mice, oral 25 or 50 mg/kg 1-2 times daily for one week. Here is the method:
Test for in vivo target inhibitory activity
After U87MG tumor cells were implanted subcutaneously in nude mice, a PRMT5 inhibitor was administered orally (25 or 50 mg/kg) 1-2 times daily for one week, and then the degree to which SDMA levels in the tumor decreased was measured.
Reagents: Bradford's solution (Catalog No. 500-0006) was purchased from Bio-rad (USA). SDMA antibody (Catalog No. 13222s) was purchased from Cell Signaling Technology (USA). SmD3 antibody (Catalog No. ap12451a) was purchased from Abgent (USA), and secondary antibody (Catalog No. ab6721) and TMB substrate (Catalog No. ab210902) were purchased from Abcam (UK).
Experimental procedure: The tumor tissues transplanted into the mice were excised, the cells were lysed, and then quantified with Bradford's solution. 5-10 μg of protein per sample was diluted with carbonate-bicarbonate buffer and dispensed into a 96-well plate and reacted at room temperature for 2 hours. After washing with phosphate buffered saline (PBST) containing 0.05% Tween-20 3 times, 200 μL of PBST containing 5% bovine serum albumin (BSA-PBST) was added and reacted at room temperature for 2 hours. After washing with PBST 3 times, the SDMA antibody and the SmD3 antibody were diluted in BSA-PBST, and 100 μL of each was dispensed onto the plate and reacted at 4° C. overnight. After washing with PBST 3 times the next day, 100 μL of the secondary antibody diluted in BSA-PBST was added and reacted at room temperature for 1 hour. After washing with PBST 3 times, 100 μL of TMB substrate was added and reacted at room temperature for 10-20 minutes, and 100 μL of 1N sulfuric acid solution was added to terminate the reaction. Then, the absorbance at 450 nm was measured to calculate the degree of SDMA inhibition by the compound. (+++: more than 70%, ++: more than 30% and 70% or less, +: 30% or less)

Sequence of PRMT5-MEP50 enzyme complex (O14744 2-637): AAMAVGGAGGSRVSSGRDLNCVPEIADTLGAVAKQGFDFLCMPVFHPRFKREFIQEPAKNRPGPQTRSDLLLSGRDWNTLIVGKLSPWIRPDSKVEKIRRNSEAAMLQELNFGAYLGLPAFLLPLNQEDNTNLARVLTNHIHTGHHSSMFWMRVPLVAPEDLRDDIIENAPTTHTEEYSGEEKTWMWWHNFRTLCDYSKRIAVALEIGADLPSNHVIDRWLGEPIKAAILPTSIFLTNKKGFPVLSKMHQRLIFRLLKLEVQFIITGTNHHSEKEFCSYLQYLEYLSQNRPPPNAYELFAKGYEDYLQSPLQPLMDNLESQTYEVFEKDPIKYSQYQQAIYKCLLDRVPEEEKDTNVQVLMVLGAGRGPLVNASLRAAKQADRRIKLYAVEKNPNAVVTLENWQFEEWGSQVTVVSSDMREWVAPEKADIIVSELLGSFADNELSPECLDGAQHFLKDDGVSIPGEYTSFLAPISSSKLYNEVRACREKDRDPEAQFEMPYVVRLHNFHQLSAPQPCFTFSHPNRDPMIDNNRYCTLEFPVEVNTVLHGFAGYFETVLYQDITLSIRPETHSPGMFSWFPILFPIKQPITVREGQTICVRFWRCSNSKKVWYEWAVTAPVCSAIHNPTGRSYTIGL
Sequence of PRMT5-MEP50 enzyme complex (Q9BQA1 2-342 partner): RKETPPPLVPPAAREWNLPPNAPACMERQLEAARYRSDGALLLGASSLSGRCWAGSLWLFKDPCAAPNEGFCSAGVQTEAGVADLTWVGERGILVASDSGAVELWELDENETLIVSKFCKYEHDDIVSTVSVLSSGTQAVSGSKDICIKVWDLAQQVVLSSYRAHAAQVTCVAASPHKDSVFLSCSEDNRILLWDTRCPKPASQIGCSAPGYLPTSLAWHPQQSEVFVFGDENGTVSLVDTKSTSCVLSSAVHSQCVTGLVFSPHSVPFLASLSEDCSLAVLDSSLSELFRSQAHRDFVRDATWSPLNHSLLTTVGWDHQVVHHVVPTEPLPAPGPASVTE

In test [1], `CCCc1ccc2c(c1)OCCN(C[C@H](O)CN1CCc3ccccc3C1)C2=O` [Example 11, 4-[(2R)-3-(3,4-dihydro-1H-isoquinolin-2-yl)-2-hydroxy-propyl]-8-propyl-2,3-dihydro-1,4-benzoxazepin-5-one] showed an IC50 of 0.1 to 1 µM. In test [2], the “SDMA inhibition (%)” value is “++ (++: more than 30% and 70% or less)”. In test [1], `O=C1c2ccc(CN3CCOCC3)cc2OCCN1C[C@H](O)CN1CCc2ccccc2C1` [Example 22, 4-[(2R)-3-(3,4-dihydro-1H-isoquinolin-2-yl)-2-hydroxy-propyl]-8-(morpholinomethyl)-2,3-dihydro-1,4-benzoxazepin-5-one] had an IC50 of 0.001 to 0.1 µM. In addition, the “SDMA inhibition (%)” value in test [2] is on record as “+++ (+++: more than 70%)”. In test [1], `CN1CCC(Oc2ccc3c(c2)OCCN(C[C@H](O)CN2CCc4ccccc4C2)C3=O)CC1` [Example 87, 4-[(2R)-3-(3,4-dihydro-1H-isoquinolin-2-yl)-2-hydroxy-propyl]-8-[(1-methyl-4-piperidyl)oxy]-2,3-dihydro-1,4-benzoxazepin-5-one] displayed an IC50 of 0.001 to 0.1 µM. In addition, in test [2], the “SDMA inhibition (%)” value is given as “+++ (+++: more than 70%)”. On the same counts, the results for `CCN1CCC(Oc2ccc3c(c2)OCCN(C[C@H](O)CN2CCc4ccccc4C2)C3=O)CC1` [Example 88, 4-[(2R)-3-(3,4-dihydro-1H-isoquinolin-2-yl)-2-hydroxy-propyl]-8-[(1-ethyl-4-piperidyl)oxy]-2,3-dihydro-1,4-benzoxazepin-5-one] are 0.001 to 0.1 µM and “+++ (+++: more than 70%)”. For `O=C1c2ccc(OC3CCN(C4COC4)CC3)cc2OCCN1C[C@H](O)CN1CCc2ccccc2C1` [Example 92, 4-[(2R)-3-(3,4-dihydro-1H-isoquinolin-2-yl)-2-hydroxy-propyl]-8-[[1-(oxetan-3-yl)-4-piperidyl]oxy]-2,3-dihydro-1,4-benzoxazepin-5-one] the same measures were 0.1 to 1 µM and “+++ (+++: more than 70%)”. `CN1CCC(Oc2ccc3c(c2)OC(C)(C)CN(C[C@H](O)CN2CCc4ccccc4C2)C3=O)CC1` [Example 112, 4-[(2R)-3-(3,4-dihydro-1H-isoquinolin-2-yl)-2-hydroxy-propyl]-2,2-dimethyl-8-[(1-methyl-4-piperidyl)oxy]-3H-1,4-benzoxazepin-5-one] returned a 50% inhibitory concentration (IC50) in test [1] of 0.1 to 1 µM. Moreover, the “SDMA inhibition (%)” value in test [2] is “+++ (+++: more than 70%)”. For `O=C1c2ccc(Br)cc2CCCN1C[C@H](O)CN1CCc2ccccc2C1` [Example 155, 7-bromo-2-[(2R)-3-(3,4-dihydro-1H-isoquinolin-2-yl)-2-hydroxy-propyl]-4,5-dihydro-3H-2-benzazepin-1-one] the same measures were 0.001 to 0.1 µM and “+ (+: 30% or less)”. In test [1], `CN1CCN(C[C@H](O)CN2CCc3ccccc3C2)C(=O)c2ccc(Br)cc21` [Example 156, 8-bromo-4-[(2R)-3-(3,4-dihydro-1H-isoquinolin-2-yl)-2-hydroxy-propyl]-1-methyl-2,3-dihydro-1,4-benzodiazepin-5-one] displayed an IC50 of 0.001 to 0.1 µM. Further, the “SDMA inhibition (%)” value in test [2] is “++ (++: more than 30% and 70% or less)”. Compound `C[C@@H]1CN(C[C@H](O)CN2CCc3ccccc3C2)C(=O)c2ccc(OC3CCN(C[C@@H](C)O)CC3)cc2O1` [Example 268, (2R)-4-[(2R)-3-(3,4-dihydro-1H-isoquinolin-2-yl)-2-hydroxy-propyl]-8-[[1-[(2R)-2-hydroxypropyl]-4-piperidyl]oxy]-2-methyl-2,3-dihydro-1,4-benzoxazepin-5-one] gave a 50% inhibitory concentration (IC50) in test [1] of 0.1 to 1 µM. On to `COCCN1CC[C@@H](Oc2ccc3c(c2)OCCN(C[C@H](O)CN2CCc4ccccc4C2)C3=O)C1` [Example 272, 4-[(2R)-3-(3,4-dihydro-1H-isoquinolin-2-yl)-2-hydroxy-propyl]-8-[(3R)-1-(2-methoxyethyl)pyrrolidin-3-yl]oxy-2,3-dihydro-1,4-benzoxazepin-5-one], for which the half-maximal inhibitory concentration (IC50) in test [1] lay within 0.1 to 1 µM. Same read-out and setting: next, `C[C@@H]1CN(C[C@H](O)CN2CCc3ccccc3C2)C(=O)c2ccc(O[C@@H]3CCN(C)C3)cc2O1` [Example 273, (2R)-4-[(2R)-3-(3,4-dihydro-1H-isoquinolin-2-yl)-2-hydroxy-propyl]-2-methyl-8-[(3R)-1-methylpyrrolidin-3-yl]oxy-2,3-dihydro-1,4-benzoxazepin-5-one]: 0.1 to 1 µM. Same read-out and setting: next, `COCCN1CC[C@@H](Oc2ccc3c(c2)O[C@H](C)CN(C[C@H](O)CN2CCc4ccccc4C2)C3=O)C1` [Example 274, (2R)-4-[(2R)-3-(3,4-dihydro-1H-isoquinolin-2-yl)-2-hydroxy-propyl]-8-[(3R)-1-(2-methoxyethyl)pyrrolidin-3-yl]oxy-2-methyl-2,3-dihydro-1,4-benzoxazepin-5-one]: 0.1 to 1 µM.

Values taken from US11111237B2, “Bicyclic compound and use thereof” (SK BIOPHARMACEUTICALS CO., LTD., priority 2019, dated 2021).
